# Reference: patent publication US7622269B2, “Methods of screening tyramine- and octopamine-expressing cells for compounds and compositions having potential insect control activity” (Tyratech, Inc., priority 2004, dated 2009)
# Values joined by “and” are separate entries in the source; they are usually repeats but may differ in a detail not shown here. Identical values can stand only once.
# What was measured:
# [1] = system: Drosophila melanogaster wild type strain; test: Topical toxicity bioassay, wild type fruit fly; assay type: in vivo; settings: for Wild/type LD50 values / LD50, D. melanogaster: topical application; for Wild/type LD50 values: mortality 24 hours after treatment; for % Mortality at LD50 of wild/type Drosophila melanogaster strain, Wild/type: topical, 24 hour; for LD50, D. melanogaster: 24 hours
# OAMB [2] = target: T1, OAMB (Drosophila melanogaster, UniProt Q7JQF1, L268I/L487I/L521I/T180I); test: Saturation binding of 3H-yohimbine to membranes of COS-7 cells expressing OAMB; set-up: Oligonucleotides designed to amplify the open reading frame of Drosophila melanogaster OAMB; expressed in transfected cells
# Pa oa1 [3] = target: T2, Pa oa1 (Periplaneta americana, UniProt Q7YWB7); test: Saturation binding of 3H-yohimbine to membranes of COS-7 cells expressing Pa oa1
# Pa oa1 [4] = target: T2, Pa oa1; test: Intracellular calcium (Fura-2) in HEK-293 cells expressing Pa oa1; assay type: cell-based
# Pa oa1 [5] = target: T2, Pa oa1; test: cAMP levels in HEK-293 cells expressing Pa oa1; assay type: cell-based
# Experimental: (§1) Twenty-four hours before cell treatment, about 300,000 HEK-293 cells are plated in about 1 ml media with about 0.8 mg G418/ml into multi-well dishes (e.g., 12-well, 4.5 cm^2). For cell treatment, the media is aspirated and about 1 ml PBS with about 300 μM IBMX and the test reagent is added. […] Cells are incubated with about 70% ethanol for about 1 h at about −20° C. The cellular debris is centrifuged and then the supernatant is removed and lyophilized to dryness. The amount of cAMP in the extract is determined by using a cAMP binding protein from the ^3H-cAMP Biotrak assay system (Amersham Biosciences) as per the manufacturer's instructions. To test the effects of calcium chelation on cAMP levels, the cells are incubated with about […] BAPTA/AM (Calbiochem Biochemicals, La Jolla, Calif.) for about 10 min before the addition of the test reagents.
# (§2) To determine cAMP levels in cells, about 24-hours before cell treatment, 300,000 HEK-293 cells are plated in 1 mL media with 0.8 mg G418/mL into multi-dishes (4.5 cm2). For cell treatment, the media is aspirated and 1 mL PBS with 300 μM IBMX and the test reagent is added. Cells are incubated at 37° C. for 20 min, and the PBS is then aspirated. Cells are incubated with 70% ethanol for 1 hour at −20° C. The cellular debris is centrifuged and then the supernatant is removed and lyophilized to dryness. The amount of cAMP in the extract is determined by using a cAMP binding protein from the ^3H-cAMP Biotrak assay system (Amersham Biosciences, Piscataway, N.J.) as per the manufacturer's instructions.
# Pa oa1 [6] = target: T2, Pa oa1; test: Competitive binding against 3H-yohimbine, Pa oa1 membranes; settings: Ki, about 2 nM 3H-yohimbine
# control HEK-293 cells [7] = test: Intracellular calcium in control HEK-293 cells transfected with empty pCDNA3; assay type: cell-based, human; settings: about 10 μM
# control HEK-293 cells [8] = test: cAMP levels in control HEK-293 cells transfected with pCDNA3 without insert; assay type: cell-based, human; settings: up to about 100 μM
# Experimental: as §1
# To determine which second messenger signaling pathways octopamine could affect through the Pa oa1 receptor, HEK-293 cells are stably transfected with pCDNA3-Pa oa1 or pCDNA3 without an insert as a control.
# OAMB [9] = target: T1, OAMB; test: biochemical; assay type: binding; set-up: Oligonucleotides designed to amplify the open reading frame of Drosophila melanogaster OAMB; expressed in transfected cells
# Pa oa1 [10] = target: T2, Pa oa1; test: Specific binding of 3H-yohimbine to Pa oa1 membranes in presence of plant essential oil; settings: for relative potency as inhibitor of 3H-yohimbine binding, Pa oa1 vs OAMB: 50 μM; for effect on specific binding of 3H-yohimbine: 50 μM test chemical, 4 nM 3H-yohimbine
# Experimental: (§3) The binding activity of ^3H-yohimbine to membranes expressing Pa oa1 or OAMB is performed in the presence and absence of three structurally related plant essential oil monoterpenoids, which are selected based on their insecticidal activity, the absence or presence and location of the hydroxyl group and a spacing group within the molecule. Membrane protein (10 μg) expressing Pa oa1 is incubated with 4 nM ^3H-yohimbine in the presence and absence of 50 μM of the test chemical. The specific activity is calculated as the difference between counts in the presence and absence of test chemical. Specific binding is calculated by determining nonspecific binding with 50 μM tested plant essential oils and subtracting nonspecific binding from total binding.
# OAMB [11] = target: T1, OAMB; test: Specific binding of 3H-yohimbine to OAMB membranes in presence of plant essential oil; set-up: Oligonucleotides designed to amplify the open reading frame of Drosophila melanogaster OAMB; expressed in transfected cells; settings: 50 μM test chemical, 4 nM 3H-yohimbine
# Experimental: as §3
# OAMB [12] = target: T1, OAMB; test: Intracellular calcium (Fura-2) in HEK-293 cells expressing OAMB; settings: 25 μM
# Experimental: Cells are collected by scraping and are suspended at about 750,000 cells/ml in HBSS with about 5 μM Fura-2 AM (Sigma-Aldrich).
# OAMB [13] = target: T1, OAMB; test: cAMP levels in HEK-293 cells expressing OAMB; assay type: cell-based; set-up: Oligonucleotides designed to amplify the open reading frame of Drosophila melanogaster OAMB; expressed in transfected cells; settings: 50 μM, 300 μM IBMX
# Experimental: as §2
# American cockroach = test: Topical toxicity bioassay, American cockroach; assay type: in vivo, Periplaneta americana; settings: for LD50, P. Americana: topical application, 24 hours
# Experimental: Acetonic solutions of plant essential oils are prepared and different concentrations of each, that give from 10%-100% mortality, are applied by topical application. Controls are treated with the same volume (0.5 μl/insect) of acetone. Replicates, with 5 insects per replicate, are used for each concentration. The mortality is calculated 24 hours after treatment. Data are subjected to probit analysis to determine LD50 value for each compound.
# [14] = 3H-yohimbine 0.5 to 50 nM, 50 μM phentolamine for nonspecific binding
# T2 sequence (Q7YWB7 entry or part of it): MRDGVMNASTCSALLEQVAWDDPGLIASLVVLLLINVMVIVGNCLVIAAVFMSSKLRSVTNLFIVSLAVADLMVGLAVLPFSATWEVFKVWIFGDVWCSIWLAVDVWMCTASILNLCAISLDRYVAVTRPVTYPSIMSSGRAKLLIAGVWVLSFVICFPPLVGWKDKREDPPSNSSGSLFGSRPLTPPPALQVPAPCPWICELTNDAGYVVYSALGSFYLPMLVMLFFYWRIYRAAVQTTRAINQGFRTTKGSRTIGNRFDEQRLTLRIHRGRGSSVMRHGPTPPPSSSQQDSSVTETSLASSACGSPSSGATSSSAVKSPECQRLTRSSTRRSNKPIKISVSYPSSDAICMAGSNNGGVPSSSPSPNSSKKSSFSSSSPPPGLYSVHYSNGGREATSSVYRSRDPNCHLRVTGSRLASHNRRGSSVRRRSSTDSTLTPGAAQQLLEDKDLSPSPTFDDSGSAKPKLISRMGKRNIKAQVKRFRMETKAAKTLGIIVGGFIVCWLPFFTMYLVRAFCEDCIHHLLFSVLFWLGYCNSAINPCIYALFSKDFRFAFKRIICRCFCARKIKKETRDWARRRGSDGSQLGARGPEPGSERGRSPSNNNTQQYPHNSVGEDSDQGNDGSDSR
# T1 sequence (Q7JQF1 other isoform, or with tags, fused parts or gaps T180I/L268I/L487I/L524I): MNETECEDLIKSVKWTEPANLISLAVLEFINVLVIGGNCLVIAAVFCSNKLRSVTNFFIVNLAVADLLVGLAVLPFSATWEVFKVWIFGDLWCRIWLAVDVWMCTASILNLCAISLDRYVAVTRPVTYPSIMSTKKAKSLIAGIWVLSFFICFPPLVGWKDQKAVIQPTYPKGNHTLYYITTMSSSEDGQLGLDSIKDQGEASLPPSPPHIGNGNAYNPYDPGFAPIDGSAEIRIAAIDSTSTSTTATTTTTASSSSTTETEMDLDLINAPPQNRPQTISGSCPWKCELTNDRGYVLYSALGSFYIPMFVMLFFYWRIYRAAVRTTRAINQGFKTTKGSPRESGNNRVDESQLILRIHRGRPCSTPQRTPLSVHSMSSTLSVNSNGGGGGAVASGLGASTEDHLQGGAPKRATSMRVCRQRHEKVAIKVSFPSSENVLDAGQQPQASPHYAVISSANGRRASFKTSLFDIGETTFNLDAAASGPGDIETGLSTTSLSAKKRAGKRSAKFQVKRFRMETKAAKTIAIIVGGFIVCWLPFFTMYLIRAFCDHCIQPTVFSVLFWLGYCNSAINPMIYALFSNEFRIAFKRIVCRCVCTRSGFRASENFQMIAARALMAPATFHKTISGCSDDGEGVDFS
structure (smiles),measurement,setting,value
CCC(=O)OCCc1ccccc1 [2-phenylethyl propionate],Wild/type LD50 values,[1],14.50 μg/fly
same,"% Mortality at LD50 of wild/type Drosophila melanogaster strain, Wild/type",[1],53.3%
COC(=O)[C@@H]1[C@H]2C[C@H]3c4[nH]c5ccccc5c4CCN3C[C@@H]2CC[C@@H]1O [3H-yohimbine],Kd,OAMB [2]; [14],~0.043 µM and 0.043 µM
same,Bmax,OAMB [2]; COS-7 membranes,about 8.04 pmol/mg
same,Bmax,OAMB [2]; Table B,8.04 pmole receptor/mg protein
same,Kd,Pa oa1 [3]; [14],~0.0284 µM and 0.0284 µM
same,Bmax for specific binding,Pa oa1 [3]; COS-7 membranes,about 11.8 pmol/mg protein
same,affinity of Pa oa1 to the radioligand higher than OAMB,Pa oa1 [3]; Pa oa1 vs OAMB,about 1.5 fold
same,Bmax,Pa oa1 [3]; Table B,11.80 pmole receptor/mg protein
CC(=O)OCOC(=O)CN(CC(=O)OCOC(C)=O)c1ccccc1OCCOc1ccccc1N(CC(=O)OCOC(C)=O)CC(=O)OCOC(C)=O [BAPTA/AM],effect on increase in free intracellular calcium by about 1 μM octopamine,Pa oa1 [4]; about 20 μM BAPTA/AM,inhibit the increase in free intracellular calcium
same,cAMP levels in absence vs presence of BAPTA/AM,"Pa oa1 [5]; about 20 μM BAPTA/AM, basal, about 100 nM or about 1 μM octopamine",not found to be statistically different
CN(C)CCCN1c2ccccc2Sc2ccc(Cl)cc21 [Chlorpromazine],Ki,Pa oa1 [6],0.012 ± 0.003 µM
NCCc1ccc(O)c(O)c1 [Dopamine],Ki,Pa oa1 [6],56.6 ± 8 µM
CCN(CC)CCNC(=O)c1cc(Cl)c(N)cc1OC [Metoclopramine],Ki,Pa oa1 [6],4.76 ± 1.32 µM
Cc1ccc(N(CC2=NCCN2)c2cccc(O)c2)cc1 [Phentolamine],Ki,Pa oa1 [6],0.023 ± 0.009 µM
NCCc1c[nH]c2ccc(O)cc12 [Serotonin],Ki,Pa oa1 [6],77.4 ± 11.6 µM
"NCCc1ccc(O)cc1 [Tyramine, tyramine]",concentration that increases intracellular calcium,Pa oa1 [4],≥ 1 µM
same,effect on intracellular calcium,Pa oa1 [4]; about 100 nM,does not modulate intracellular calcium levels
same,increase in tyramine concentration compared to about 10 nM octopamine required for similar response,Pa oa1 [4]; calcium and cAMP assays,about 100 fold
same,Ki,Pa oa1 [6],~31 µM and 31 µM
same,effect on intracellular calcium levels,control HEK-293 cells [7],Neither about 10 μM octopamine nor about 10 μM tyramine modulates intracellular calcium levels
same,effect on cAMP levels,control HEK-293 cells [8],neither DL-octopamine nor tyramine at concentrations up to about 100 μM has significant effects on cAMP levels
same,EC50,"Pa oa1 [5]; 300 μM IBMX, read-out: EC50 for increase in cAMP",~97.7 µM
same,fold induction at 100 µM,"Pa oa1 [5]; HEK293, 20 min, about 100 μM amine, read-out: increase in cAMP",~215
same,cAMP concentration,"Pa oa1 [5]; about 10 nM amine, basal about 0.48 pmol cAMP",about 0.50 pmol cAMP
same,cAMP,Pa oa1 [5]; about 1 μM amine,about 1.2 pmol
same,Ki,OAMB [9],~33.8 µM
"OCC=Cc1ccccc1 [cinnamic alcohol, 3-phenyl-2-propen-1-ol]",changes in [Ca2+]i level,Pa oa1 [4]; 25 μM,increase [Ca^2+]i through Pa oa1 and OAMB
same,"relative potency as inhibitor of 3H-yohimbine binding, Pa oa1 vs OAMB",Pa oa1 [10],more potent against OAMB than Pa oa1
same,effect on specific binding of 3H-yohimbine,Pa oa1 [10],decrease the binding of ^3H-yohimbine
same,effect on specific binding of 3H-yohimbine,OAMB [11],decrease the binding of ^3H-yohimbine
same,changes in [Ca2+]i level,OAMB [12],increase [Ca^2+]i through Pa oa1 and OAMB
same,rank of potency based on increased [Ca2+]i level,OAMB [12],the most potent agent tested in this example
same,speed of increase in [Ca2+]i,OAMB [12],slower than the other two chemicals
same,effect on basal cAMP level,"Pa oa1 [5]; 50 μM, 300 μM IBMX",slight increase in cAMP level
same,effect on basal cAMP level,OAMB [13],slight increase in cAMP level
same,"LD50, P. Americana",American cockroach,98 μg/insect
same,"LD50, D. melanogaster",[1],1.65 μg/insect
same,Wild/type LD50 values,[1],1.65 μg/fly
same,"% Mortality at LD50 of wild/type Drosophila melanogaster strain, Wild/type",[1],30.0%
"C=CCc1ccc(O)c(OC)c1 [eugenol, 2-methoxy-4-(2-propenyl)phenol]",changes in [Ca2+]i level,Pa oa1 [4]; 25 μM,increase [Ca^2+]i through Pa oa1 and OAMB
same,rank of potency based on increased [Ca2+]i level,Pa oa1 [4]; 25 μM,the most potent agent tested in this example
same,"relative potency as inhibitor of 3H-yohimbine binding, Pa oa1 vs OAMB",Pa oa1 [10],more potent inhibitors against Pa oa1 than OAMB
same,effect on specific binding of 3H-yohimbine,Pa oa1 [10],decrease the binding of ^3H-yohimbine
same,effect on specific binding of 3H-yohimbine,OAMB [11],decrease the binding of ^3H-yohimbine
same,changes in [Ca2+]i level,OAMB [12],increase [Ca^2+]i through Pa oa1 and OAMB
same,inhibition at 50 µM,"Pa oa1 [5]; HEK293, 20 min, 50 μM, 300 μM IBMX, basal cAMP, read-out: decrease in cAMP level",24%
same,effect on basal cAMP level,OAMB [13],slightly decreased cAMP level
same,more toxic against American cockroach than cinnamic alcohol,American cockroach; in vivo,about 2 fold
same,more toxic against American cockroach than trans-anethole,American cockroach; in vivo,about 27 fold
same,"LD50, P. Americana",American cockroach,47 μg/insect
same,more toxic against wild type flies than trans-anethole,[1]; in vivo,3 fold
same,"LD50, D. melanogaster",[1],1.90 μg/insect
same,Wild/type LD50 values,[1],1.90 μg/fly
same,"% Mortality at LD50 of wild/type Drosophila melanogaster strain, Wild/type",[1],53.3%
"CC(C)=CCCC(C)=CCO [geraniol, 3,7-dimethyl-2,6-octadien-1-ol]",Wild/type LD50 values,[1],10.50 μg/fly
same,"% Mortality at LD50 of wild/type Drosophila melanogaster strain, Wild/type",[1],60.0%
"COC(=O)c1ccccc1O [methyl salicylate, 2-hydroxybenzoic acid methyl ester]",Wild/type LD50 values,[1],7.50 μg/fly
same,"% Mortality at LD50 of wild/type Drosophila melanogaster strain, Wild/type",[1],40.0%
"Cc1ccc(C(C)C)cc1 [p-cymene, methyl(1-methylethyl)benzene]",Wild/type LD50 values,[1],25.00 μg/fly
same,"% Mortality at LD50 of wild/type Drosophila melanogaster strain, Wild/type",[1],40.0%
"CC=Cc1ccc(OC)cc1 [trans-anethole, 1-methoxy-4-(1-propenyl)benzene]",speed of increase in [Ca2+]i,Pa oa1 [4]; 25 μM,slower than eugenol and cinnamic alcohol
same,effect on specific binding of 3H-yohimbine,Pa oa1 [10],decreases the ^3H-yohimbine binding activity to only Pa oa1
same,effect on specific binding of 3H-yohimbine,OAMB [11],does not have a significant effect on binding to OAMB
same,changes in [Ca2+]i level,OAMB [12],increases
same,increase in cAMP level,OAMB [13]; basal cAMP,22%
